# Source: patent publication US20110263527A1, “Sulfated Galactans With Antithrombotic Activity, Pharmaceutical Composition, Method for Treating or Prophylaxis of Arterial or Venous Thrombosis, Method of Extraction and Use Thereof” (priority 2008, published 2011)
# Assays:
# [1] = target: T1, thrombin (heparin cofactor II-mediated inactivation) (Homo sapiens, UniProt P00734+P05546); experiment: Thrombin inhibition by heparin cofactor II in the presence of sulfated polysaccharides; type: biochemical; conditions: heparin cofactor II 15 nM, thrombin 2 nM, FIG. 2C
# T1 construct: purchased Haematologic Technologies Inc., Vermont, USA
# Experimental: (§1) Antithrombin (10 nM) or of heparin cofactor II (15 nM) were incubated with thrombin (2 nM) or factor Xa (2 nM) in the presence of various concentrations of non-fractionated heparin (□), low molecular weight heparin (▪), native sulfated galactans (▴), ˜14 kDa fragment (◯) and a ˜5 kDa fragment ([…]). After 60 seconds, the amidolytic thrombin activity and factor Xa were determined with a chromogenic substrate specific for each protease ([…]) [mean±standard error of the mean (SEM), n=3]. No inhibition was observed when thrombin or factor Xa was incubated with sulfated polysaccharide alone over the same range of tested concentrations.
# (§2) g) Thrombin Inhibition or Factor Xa by Antithrombin and Heparin Cofactor II in the Presence of Sulfated Polysaccharides
# (§3) The incubations were performed on plates of 96 wells. […] After 60 seconds at 37° C., were added 25 μL chromogenic substrate (S-2238 for thrombin or S-2222 for factor Xa) (Chromogenix AB, Mondal, Sweden), and was recorded absorbance at 405 nm for 120 seconds. The rate of absorbance change was proportional to the activity of thrombin or factor Xa remaining in the incubation. […]
# [2] = target: T2, factor Xa (antithrombin-mediated inactivation) (Homo sapiens, UniProt P00742+P01008); experiment: Factor Xa inhibition by antithrombin in the presence of sulfated polysaccharides; type: biochemical; conditions: antithrombin 10 nM, factor Xa 2 nM, FIG. 2B
# T2 construct: thrombin or factor Xa 2 nM (Haematologic Technologies Inc., Vermont, USA); purchased Haematologic Technologies Inc., Vermont, USA
# T2 sequence (P00742 41-179 limits assumed): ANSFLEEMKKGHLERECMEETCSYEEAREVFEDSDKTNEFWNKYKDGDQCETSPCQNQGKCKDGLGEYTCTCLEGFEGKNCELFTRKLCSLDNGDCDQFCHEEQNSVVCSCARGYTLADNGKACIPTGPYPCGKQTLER
# T2 sequence (P00742 235-488 limits assumed): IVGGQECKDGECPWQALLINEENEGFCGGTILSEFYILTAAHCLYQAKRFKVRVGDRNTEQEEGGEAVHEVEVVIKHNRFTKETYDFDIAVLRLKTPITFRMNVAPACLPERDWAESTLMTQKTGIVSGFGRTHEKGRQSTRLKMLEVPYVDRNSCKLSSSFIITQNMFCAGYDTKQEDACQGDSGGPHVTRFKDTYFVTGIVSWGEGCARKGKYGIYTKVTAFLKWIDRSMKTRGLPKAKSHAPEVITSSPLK
# T2 sequence (P01008 33-464): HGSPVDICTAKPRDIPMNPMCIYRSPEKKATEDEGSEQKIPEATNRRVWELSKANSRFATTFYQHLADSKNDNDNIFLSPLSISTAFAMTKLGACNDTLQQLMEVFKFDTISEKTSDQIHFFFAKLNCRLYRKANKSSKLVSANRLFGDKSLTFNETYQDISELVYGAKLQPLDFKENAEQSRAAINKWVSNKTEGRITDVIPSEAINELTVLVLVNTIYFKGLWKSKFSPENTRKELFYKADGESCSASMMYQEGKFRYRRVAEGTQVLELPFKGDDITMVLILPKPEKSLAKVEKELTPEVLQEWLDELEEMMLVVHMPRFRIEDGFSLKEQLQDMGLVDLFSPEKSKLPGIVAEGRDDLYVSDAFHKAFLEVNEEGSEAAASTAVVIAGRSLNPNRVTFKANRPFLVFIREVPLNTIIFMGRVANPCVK
# Experimental: as §1, §2, §3
# [3] = target: T3, thrombin (antithrombin-mediated inactivation) (Homo sapiens, UniProt P00734+P01008); experiment: Thrombin inhibition by antithrombin in the presence of sulfated polysaccharides; type: biochemical; conditions: antithrombin 10 nM, thrombin 2 nM, FIG. 2A
# T3 construct: purchased Haematologic Technologies Inc., Vermont, USA
# Experimental: as §1, §2, §3
# [4] = tested on: venous thrombosis; experiment: Venous thrombosis model (vena cava, thromboplastin and stasis); type: in vivo, Wistar rats; conditions: 1.00 mg/kg; FIGS. 3A and 3B
# Experimental: Assays were performed in rats with different doses of non-fractionated heparin (□), low molecular weight heparin (▪), native sulfated galactans (▴), ˜14 kDa fragment (◯) and a ˜5 kDa fragment ([…]) (mean±standard error of the mean (SEM), n=3). Thrombosis induced model (A and B) in the rats' vena cava. The mean weight of the thrombus for each dose was expressed as a percentage of weight in the absence of polysaccharide, (C) Thrombosis in the arteriovenous shunt model. The mean weight of the thrombus for each dose was expressed as a percentage of the weight of thrombus in the absence of polysaccharide, (D) laser irradiation induced arterial thrombosis model in the carotid artery. Results were expressed as the mean time to complete occlusion of the artery.
# The antithrombotic activity in rats was investigated using rabbit brain thromboplastin with thrombogenic stimulus. We followed the guidelines for institutional animal care and experimentation. Wistar rats (both sexes, body weight of ˜250 g) were anesthetized with a mixture of ketamine and xylazine, as already described. […] A 0.7 cm segment was prepared starting just below the branching of the right renal vein and extending until after the left renal vein which was linked. Different doses of sulfated polysaccharides were intravenously administered 1 cm below the distal lost suture and moved left for 5 minutes. […]
# [5] = International Standard (85/600); cited from earlier work
# [6] = tested on: bleeding; design: species or system Wistar rats; conditions: rat, in vivo
# Experimental: FIG. 6 refers to the effect on bleeding. Non-fractionated heparin (□), low molecular weight heparin (▪), native sulfated galactans (▴), and ˜5 kDa fragment ([…]) were infused into rats. After 5 minutes, the rats' tails were cut 3 mm from the tip and immersed in 40 mL of distilled water at room temperature. The loss of blood was determined after 60 minutes through the measure of hemoglobin in water. The results were expressed in μL of loss blood (mean±standard error of the mean (SEM), n=4). For clarity purposes only one SEM bar is shown for each point.
# Wistar rats (both sexes, body weight ˜250 g) were anesthetized with a mixture of ketamine and xylazine, as previously described. The right carotid artery was cannulated and different polysaccharides doses were infused and allowed to circulate for 5 minutes. The rats tail was cut 3 mm from the tip and immersed in 40 mL of distilled water at room temperature. After 60 minutes, blood loss was determined by measuring the hemoglobin in water by using a spectrophotometric method (Zancan P, Mourão P A S. Venous and arterial thrombosis in rat models: dissociation of the antithrombotic effects of giycosaminoglycans. Blood Coagul Fibrin 2004; 15: 45-54). The blood volume was drawn from a standard curve based on absorbance at 540 nm.
# [7] = target: T4, factor XII (Homo sapiens, UniProt P00748); experiment: Activation of factor XII in human plasma in the presence of sulfated polysaccharides; type: biochemical; conditions: chromogenic substrate S-2302, FIG. 4
# T4 construct: from tissue; host or cells: citrated human plasma
# T4 sequence (P00748 20-615): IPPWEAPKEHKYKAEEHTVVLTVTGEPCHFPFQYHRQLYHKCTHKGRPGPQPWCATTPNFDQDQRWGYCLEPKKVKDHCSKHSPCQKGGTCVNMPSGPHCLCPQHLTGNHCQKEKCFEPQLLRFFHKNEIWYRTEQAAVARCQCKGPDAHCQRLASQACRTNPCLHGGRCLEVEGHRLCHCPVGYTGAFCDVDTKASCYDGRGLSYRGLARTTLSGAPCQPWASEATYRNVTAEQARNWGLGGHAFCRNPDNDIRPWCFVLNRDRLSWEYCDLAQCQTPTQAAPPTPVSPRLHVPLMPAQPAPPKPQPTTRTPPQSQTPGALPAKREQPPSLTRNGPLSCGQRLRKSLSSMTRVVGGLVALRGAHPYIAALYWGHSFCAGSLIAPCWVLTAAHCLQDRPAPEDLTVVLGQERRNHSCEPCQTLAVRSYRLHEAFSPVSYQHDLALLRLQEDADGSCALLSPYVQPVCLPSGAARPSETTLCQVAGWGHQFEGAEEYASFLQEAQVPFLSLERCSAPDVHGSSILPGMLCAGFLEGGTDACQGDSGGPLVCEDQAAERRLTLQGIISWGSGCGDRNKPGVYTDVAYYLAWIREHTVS
# Experimental: FIG. 4 refers to the factor XII activation in human plasma incubated with non-fractionated heparin (□), native sulfated galactans (▴), ˜14 kDa fragment (◯) and a ˜5 kDa fragment ([…]). After 60 seconds of incubation at 37° C., 0.3 mM of chromogenic substrate for plasma calicrein was added. The increase in absorbance at 405 nm was expressed in milli OD/min (mean±standard error of the mean (SEM), n=3).
# h) Activation of Factor XII in the Presence of Sulfated Polysaccharides
# The assays for activation of factor XII were performed on plates of 96 wells. Citrated human plasma was diluted with 3 volumes of TS buffer and samples (40 μL) were incubated with different concentrations of sulfated polysaccharides (30 μL). After incubation at 37° C. for 60 seconds, were added 30 μL of chromogenic substrate (S-2302, 0.3 mM) (Chromogenix AB, Mondal, Sweden) and absorbance at 405 nm for 300 seconds was recorded. S-2302 is a chromogenic substrate for plasma calicrein activated by its precalicrein precursor through the action of activated factor XII. The method for determining the activity of factor XIIa is based on difference in absorbance between formed p-nitroanilide and original substrate. The formation rate of p-nitroanilide, i.e., the increase in absorbance at 405 nm, is proportional to enzyme activity. No activation occurred in control experiments in the absence of sulfated polysaccharide.
Substance,inactivation of thrombin by heparin cofactor II [1],inactivation of factor Xa by antithrombin [2],inactivation of thrombin by antithrombin [3],antithrombotic activity [4],activity of the standard [5] [IU/mg],"effect on bleeding (hemorrhagic effect, bleeding time) [6]",factor XII activation [7]
low molecular weight heparin,more active than ˜5 kDa fragment,more active than ˜5 kDa fragment,more active than ˜5 kDa fragment,approximately 70%,66,had no effect,–
dextran sulfate,–,–,–,–,–,–,activates factor XII
